{"source": "patent US20210228736A1", "about": "“PATHOGEN CONTROL COMPOSITIONS AND USES THEREOF” (Flagship Pioneering Innovations VI, LLC, priority 2018, published 2021)", "key": {"Pseudomonas aeruginosa": {"system": "Pseudomonas aeruginosa", "assay": "Treatment with DOX-loaded grapefruit PMPs, kinetic OD 600 nm (P. aeruginosa)", "format": "cell-based", "description": "(§1) Bacteria and yeast strains were maintained as indicated by the supplier: E. coli (ATCC, #25922) was grown on Trypticase Soy Agar/broth at 37° C., Pseudomonas aeruginosa (ATCC) was grown on Tryptic soy Agar/broth with […] rifampicin at 37° C., and Saccharomyces cerevisiae (ATCC, #9763) was grown on yeast extract peptone dextrose broth (YPD) and maintained at 30° C. Prior to treatment, fresh one day cultures were grown overnight, the OD (600 nm) was adjusted to 0.1 OD with medium prior to use, and bacteria/yeast were transferred to a 96 well plate for treatment (duplicate samples, 100 μl/well). […] Plates were covered with aluminum foil, and incubated at 37° C. (E. coli, P. aeruginosa), or 30° C. (S. cerevisiae) and agitated at 220 rpm.\n(§2) A kinetic Absorbance measurement at 600 nm was performed on a SpectraMax® spectrophotometer to monitor the OD of the cultures at t=0h, t=1h, t=2h, t=3h, t=4.5h, t=16h (E. coli, P. aeruginosa) or t=0.5h, t=1.5h, t=2.5h, t=3.5h, t=4h, t=16h (S. cerevisiae). […] To compare the cytotoxic effect of PMP-DOX treatment on different bacterial and yeast strains, within each treatment group the relative OD was determined as compared to the untreated control (set to 100%)."}, "Saccharomyces cerevisiae": {"system": "Saccharomyces cerevisiae", "assay": "Treatment with DOX-loaded grapefruit PMPs, kinetic OD 600 nm (S. cerevisiae)", "format": "cell-based", "description": "as §1, §2"}, "E. coli": {"system": "E. coli", "assay": "Treatment with DOX-loaded grapefruit PMPs, kinetic OD 600 nm (E. coli)", "format": "cell-based, Escherichia coli", "description": "as §1, §2"}}}
{"smiles": "COc1cccc2c1C(=O)c1c(O)c3c(c(O)c1C2=O)C[C@@](O)(C(=O)CO)C[C@@H]3O[C@H]1C[C@H](N)[C@H](O)[C@H](C)O1", "note": "[free doxorubicin, doxorubicin]", "values": [{"measurement": "onset of cytotoxicity compared with PMP-DOX at the same dosages", "setting": "Pseudomonas aeruginosa", "value": "cytotoxicity is induced earlier than with PMP-DOX delivery"}, {"measurement": "onset of cytotoxicity compared with PMP-DOX at the same dosages", "setting": "Saccharomyces cerevisiae", "value": "cytotoxicity is induced earlier than with PMP-DOX delivery"}, {"measurement": "onset of cytotoxicity compared with PMP-DOX at the same dosages", "setting": "E. coli", "value": "cytotoxicity is induced earlier than with PMP-DOX delivery"}]}
